Measured values from ChEMBL document CHEMBL4418299, “Compounds useful as csf1 modulators” (2016).

Tests used:
[1] = biological target: Vascular endothelial growth factor receptor 2 (Homo sapiens, UniProt P35968); test: Displacement of kinase tracer 236 from recombinant human His-tagged KDR cytoplasmic domain (789 to 1356 residues) expressed in baculovirus-infected insect cells measured after 5 hrs by TR-FRET based LanthaScreen assay
[2] = biological target: Macrophage colony-stimulating factor 1 receptor (Homo sapiens, UniProt P07333); test: Displacement of kinase tracer 236 from recombinant human His-tagged CSF1R cytoplasmic domain (538 to 910 residues) expressed in baculovirus-infected insect cells measured after 5 hrs by TR-FRET based LanthaScreen assay
Chain of Macrophage colony-stimulating factor 1 receptor (P07333 whole entry, the tested form may be a part): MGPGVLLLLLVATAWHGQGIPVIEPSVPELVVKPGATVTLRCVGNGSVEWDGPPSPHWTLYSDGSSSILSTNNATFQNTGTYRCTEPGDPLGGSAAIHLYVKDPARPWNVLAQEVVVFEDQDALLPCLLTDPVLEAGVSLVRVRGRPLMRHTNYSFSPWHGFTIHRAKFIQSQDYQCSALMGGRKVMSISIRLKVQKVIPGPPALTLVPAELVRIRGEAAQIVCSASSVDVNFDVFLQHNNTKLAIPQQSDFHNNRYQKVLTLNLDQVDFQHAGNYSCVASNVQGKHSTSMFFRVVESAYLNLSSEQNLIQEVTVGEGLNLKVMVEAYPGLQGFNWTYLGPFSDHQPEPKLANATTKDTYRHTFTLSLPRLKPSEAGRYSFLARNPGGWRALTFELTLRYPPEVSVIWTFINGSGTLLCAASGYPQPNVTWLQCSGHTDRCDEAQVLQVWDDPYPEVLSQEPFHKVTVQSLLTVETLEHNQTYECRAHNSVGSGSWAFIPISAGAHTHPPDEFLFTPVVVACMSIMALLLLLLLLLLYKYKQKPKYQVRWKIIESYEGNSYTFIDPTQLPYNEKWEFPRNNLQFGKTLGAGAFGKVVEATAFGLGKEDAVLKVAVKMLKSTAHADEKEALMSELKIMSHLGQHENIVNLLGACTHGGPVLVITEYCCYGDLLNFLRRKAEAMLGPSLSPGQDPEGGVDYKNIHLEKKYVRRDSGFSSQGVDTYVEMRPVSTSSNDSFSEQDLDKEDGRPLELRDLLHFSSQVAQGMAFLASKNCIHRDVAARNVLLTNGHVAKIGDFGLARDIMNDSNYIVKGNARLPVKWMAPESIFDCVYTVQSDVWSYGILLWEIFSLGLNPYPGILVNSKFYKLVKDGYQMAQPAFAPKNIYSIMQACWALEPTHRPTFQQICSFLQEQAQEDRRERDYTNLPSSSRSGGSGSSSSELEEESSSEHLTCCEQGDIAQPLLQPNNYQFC

Chain of Vascular endothelial growth factor receptor 2 (P35968 whole entry, the tested form may be a part): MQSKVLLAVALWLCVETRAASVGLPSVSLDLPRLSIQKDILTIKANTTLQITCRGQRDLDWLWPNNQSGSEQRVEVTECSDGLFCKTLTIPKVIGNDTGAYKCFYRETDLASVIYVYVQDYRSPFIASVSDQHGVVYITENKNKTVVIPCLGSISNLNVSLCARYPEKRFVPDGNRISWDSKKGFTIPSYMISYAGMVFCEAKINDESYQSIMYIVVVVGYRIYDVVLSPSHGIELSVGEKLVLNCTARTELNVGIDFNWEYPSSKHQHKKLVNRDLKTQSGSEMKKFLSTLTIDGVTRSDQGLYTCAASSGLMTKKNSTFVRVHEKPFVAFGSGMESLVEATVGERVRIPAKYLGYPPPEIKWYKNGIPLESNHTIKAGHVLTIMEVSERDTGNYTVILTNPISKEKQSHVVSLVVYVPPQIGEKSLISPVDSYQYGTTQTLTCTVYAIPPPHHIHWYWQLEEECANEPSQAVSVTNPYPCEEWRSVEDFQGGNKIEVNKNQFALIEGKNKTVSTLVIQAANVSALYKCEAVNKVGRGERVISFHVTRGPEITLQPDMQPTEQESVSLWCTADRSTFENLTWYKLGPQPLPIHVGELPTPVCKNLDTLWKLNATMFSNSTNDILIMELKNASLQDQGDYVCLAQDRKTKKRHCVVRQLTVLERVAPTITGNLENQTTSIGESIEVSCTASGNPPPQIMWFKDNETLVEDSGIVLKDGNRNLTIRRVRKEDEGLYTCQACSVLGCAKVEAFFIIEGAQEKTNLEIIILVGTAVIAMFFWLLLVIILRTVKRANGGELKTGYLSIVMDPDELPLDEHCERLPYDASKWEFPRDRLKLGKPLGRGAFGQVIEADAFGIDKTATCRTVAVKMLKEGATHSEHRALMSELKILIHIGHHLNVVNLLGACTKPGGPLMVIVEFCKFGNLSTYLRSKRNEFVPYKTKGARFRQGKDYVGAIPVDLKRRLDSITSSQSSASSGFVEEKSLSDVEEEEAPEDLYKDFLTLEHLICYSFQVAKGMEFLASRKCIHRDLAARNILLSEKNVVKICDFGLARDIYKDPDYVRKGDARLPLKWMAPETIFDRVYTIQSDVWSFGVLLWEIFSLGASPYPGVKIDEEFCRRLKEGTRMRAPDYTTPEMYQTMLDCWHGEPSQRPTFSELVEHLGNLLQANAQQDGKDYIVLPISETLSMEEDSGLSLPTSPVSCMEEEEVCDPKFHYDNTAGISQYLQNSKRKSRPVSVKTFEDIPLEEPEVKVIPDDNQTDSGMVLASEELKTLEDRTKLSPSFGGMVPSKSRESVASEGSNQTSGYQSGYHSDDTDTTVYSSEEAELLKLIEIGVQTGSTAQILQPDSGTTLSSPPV

Row | IC50 [1] [nM] | IC50 [2] [nM] | Compound
1 | > 200 | 10 to 200 | Nc1ncnc2c3c(n(-c4ccc(NC(=O)Cc5ccc(C(F)(F)F)nn5)cc4)c12)CCC3
2 | > 200 | < 10 | Nc1ncnc2c3c(n(-c4ccc(NC(=O)Cc5ccc(C(F)(F)F)nc5)cc4)c12)CCC3
3 | > 200 | > 200 | Nc1ncnc2c3c(n(-c4ccc(NC(=O)c5c[nH]c6ccccc56)cc4)c12)CCC3
4 | > 200 | 10 to 200 | COc1cc(CC(=O)Nc2ccc(-n3c4c(c5ncnc(N)c53)COC4)cc2)ccc1C
5 | > 200 | < 10 | Nc1ncnc2c3c(n(-c4ccc(NC(=O)Cc5cccc(Cl)c5)cc4)c12)CCC3
6 | > 200 | < 10 | Nc1ncnc2c3c(n(-c4ccc(NC(=O)Cc5ccc(Cl)c(C(F)(F)F)c5)cc4)c12)COC3
7 | > 200 | < 10 | COc1ccc(CC(=O)Nc2ccc(-n3c4c(c5ncnc(N)c53)COC4)cc2)cc1C
8 | > 200 | < 10 | Nc1ncnc2c3c(n(-c4ccc(NC(=O)Cc5cccc(Cl)c5F)cc4)c12)CCC3
9 | > 200 | > 200 | Nc1ncnc2c3c(n(-c4ccc(NC(=O)CCc5c[nH]c6ccccc56)cc4)c12)CCC3
10 | > 200 | < 10 | COc1cc(-n2c3c(c4ncnc(N)c42)CCC3)ccc1CC(=O)Nc1ccc(OC)c(C(F)(F)F)c1
11 | > 200 | 10 to 200 | Nc1ncnc2c3c(n(-c4ccc(CC(=O)Nc5ccccc5)cc4)c12)CCC3
12 | > 200 | 10 to 200 | COc1ccc(NC(=O)Cc2ccc(-n3c4c(c5ncnc(N)c53)CCC4)cc2)c(F)c1
13 | > 200 | < 10 | COc1cc(-n2c3c(c4ncnc(N)c42)CCC3)ccc1NC(=O)Cc1cc(C)ccc1F
14 | > 200 | < 10 | Nc1ncnc2c3c(n(-c4ccc(CC(=O)Nc5ccc(Cl)c(Cl)c5)cc4)c12)CCC3
15 | > 200 | 10 to 200 | Nc1ncnc2c3c(n(-c4ccc(CC(=O)Nc5cc(C(F)(F)F)ccc5F)cc4)c12)COC3
16 | > 200 | < 10 | COc1cc(-n2c3c(c4ncnc(N)c42)CCC3)ccc1NC(=O)Cc1ccc(OC(F)(F)F)cc1
17 | > 200 | 10 to 200 | COc1ccc(CC(=O)Nc2ccc(-n3c4c(c5ncnc(N)c53)CCC4)cc2)cc1N(C)C

Row | IC50 [1] [nM] | IC50 [2] [nM] | Compound
18 | > 200 | < 10 | COc1cccc(CC(=O)Nc2ccc(-n3c4c(c5ncnc(N)c53)CCC4)cc2)c1
19 | > 200 | 10 to 200 | COc1ccc(NC(=O)Cc2ccc(-n3c4c(c5ncnc(N)c53)CCC4)cc2)cn1
20 | > 200 | 6 | COc1cc(-n2c3c(c4ncnc(N)c42)COC3)ccc1NC(=O)Cc1ccc(OC(F)(F)F)cc1
21 | > 200 | < 10 | Nc1ncnc2c3c(n(-c4ccc(NC(=O)Cc5ccc6c(c5)CCN6CC(F)(F)F)cc4)c12)CCC3
22 | > 200 | < 10 | Nc1ncnc2c3c(n(-c4ccc(NC(=O)Cc5ccnc(C(F)(F)F)c5)cc4)c12)CCC3
23 | 10 to 200 | < 10 | Cc1ccc(CC(=O)Nc2ccc(-n3c4c(c5ncnc(N)c53)CCC4)cc2)c(F)c1
24 | > 200 | 10 to 200 | Cc1ccc(F)c(CC(=O)Nc2ccc(-n3c4c(c5ncnc(N)c53)COC4)cc2)c1
25 | > 200 | 10 to 200 | Nc1ncnc2c3c(n(-c4ccc(CC(=O)Nc5ccc(OC(F)(F)F)cc5)cc4)c12)COC3
26 | > 200 | < 10 | COc1ccc(CC(=O)Nc2ccc(-n3c4c(c5ncnc(N)c53)CCC4)cc2)c(OC)c1
27 | > 200 | 9 | Nc1ncnc2c3c(n(-c4ccc(CC(=O)Nc5ccc(Cl)c(C(F)(F)F)c5)cc4)c12)CCC3
28 | > 200 | 10 to 200 | Nc1ncnc2c3c(n(-c4ccc(NC(=O)Cc5ccc(Cl)nn5)cc4)c12)CCC3
29 | > 200 | < 10 | COc1ccc(CC(=O)Nc2ccc(-n3c4c(c5ncnc(N)c53)COC4)cc2)cc1C(F)(F)F
30 | 10 to 200 | < 10 | COc1ccc(NC(=O)Cc2ccc(-n3c4c(c5ncnc(N)c53)COC4)cc2)cc1C(F)(F)F
31 | > 200 | 10 to 200 | Nc1ncnc2c3c(n(-c4ccc(NC(=O)Cc5cc(C(F)(F)F)ccn5)cc4)c12)CCC3
32 | > 200 | 10 to 200 | Nc1ncnc2c3c(n(-c4ccc(CC(=O)Nc5ccc(C(F)(F)F)cn5)cc4)c12)COC3
33 | > 200 | < 10 | COc1cc(-n2c3c(c4ncnc(N)c42)CCC3)ccc1CC(=O)Nc1cc(C(F)(F)F)ccc1F
